# From article PMC11111408, “Concurrent inhibition of oncogenic and wild-type RAS-GTP for cancer therapy” (Nature, 2024)
# Where “and” joins values, the source holds several entries; their conditions need not be identical. Identical values can stand only once.
# How the values were obtained:
# Type in all cases: cell-based
# KRAS WT = KRAS WT (Homo sapiens, UniProt P01116+P62937); assay: Cellular RAS–CYPA binding (tri-complex formation), nano-BRET in U2OS cells; parameters: expressed in transfected cells; host or cells: U2OS; conditions: (95% CI)
# Description: (§1) KRAS4B, or other small GTPases, containing the indicated mutations were cloned in pNLF-N or pHTN plasmids for expression with an N-terminal nanoluciferase or HaloTag fusion, respectively. […] The following day, the cells were collected by Trypsin and reseeded in a white tissue culture-treated 96-well plate in OptiMem phenol red-free medium (Gibco) containing 4% FBS and a 1:1,000 dilution of NanoBRET 618 HaloTag ligand (Promega). For endpoint concentration response curves, vivazine nanoluciferase substrate was added to 1× concentration in OptiMem phenol red-free medium with 4% FBS. Varying concentrations of inhibitor were added and incubated for 1 or 4 h before the nano-BRET signal was measured on a Perkin Elmer Envision plate reader. For kinetic assays, endurazine nanoluciferase substrate was used in place of vivazine, and the plate was placed in a Cytation5 multi-mode reader pre-equilibrated to 37 °C and 5% CO2.
# KRAS^G12D = KRAS^G12D (Homo sapiens, UniProt P01116+P62937, G12D); assay: as above; parameters: expressed in transfected cells; host or cells: U2OS; conditions: (95% CI)
# Description: as §1
# KRAS^G12R = KRAS^G12R (Homo sapiens, UniProt P01116+P62937, G12R); assay: as above; parameters: expressed in transfected cells; host or cells: U2OS; conditions: (95% CI)
# Description: as §1
# KRAS^G12V = KRAS^G12V (Homo sapiens, UniProt P01116+P62937, G12V); assay: Cellular RAS–RAF (CRAF RBD) disruption, nano-BRET in U2OS cells; parameters: expressed in transfected cells; host or cells: U2OS PPIA-KO; Cellular RAS-RAF disruption G12V / Cellular nano-BRET G12V: scale not given here
# Description: as §1
smiles,measurement,setting,value
CCn1c(-c2cc(N3CCN(C4CC4)CC3)cnc2[C@H](C)OC)c2c3cc(ccc31)-c1csc(n1)C[C@H](NC(=O)[C@H]1[C@@H]3COC[C@@H]31)C(=O)N1CCC[C@H](N1)C(=O)OCC(C)(C)C2 [RMC-7977],EC50,KRAS WT,9.12 nM
same,EC50,KRAS^G12D,2.69 nM
same,EC50,KRAS^G12R,2.88 nM
same,EC50,"KRAS^G12V; KRAS^G12V, CRAF RBD, nano-BRET, (95% CI)",7.66 nM
same,Cellular RAS-RAF disruption G12V,KRAS^G12V; RMC-7977 0.0254 nM,100.00
same,Cellular RAS-RAF disruption G12V,KRAS^G12V; RMC-7977 0.05 nM,95.09 and 96.3702
same,Cellular RAS-RAF disruption G12V,KRAS^G12V; RMC-7977 0.08 nM,99.62
same,Cellular RAS-RAF disruption G12V,KRAS^G12V; RMC-7977 0.23 nM,93.81
same,Cellular RAS-RAF disruption G12V,KRAS^G12V; RMC-7977 0.46 nM,63.26 and 77.9214
same,Cellular RAS-RAF disruption G12V,KRAS^G12V; RMC-7977 2.06 nM,66.75
same,Cellular RAS-RAF disruption G12V,KRAS^G12V; RMC-7977 4.12 nM,17.09 and 32.4499
same,Cellular RAS-RAF disruption G12V,KRAS^G12V; RMC-7977 12.35 nM,8.26 and 13.953
same,Cellular RAS-RAF disruption G12V,KRAS^G12V; RMC-7977 18.52 nM,13.89
same,Cellular RAS-RAF disruption G12V,KRAS^G12V; RMC-7977 37.04 nM,4 and 4.5731
same,Cellular RAS-RAF disruption G12V,KRAS^G12V; RMC-7977 55.56 nM,3.90
same,Cellular RAS-RAF disruption G12V,KRAS^G12V; RMC-7977 111.11 nM,1.99 and 1.6717
same,Cellular RAS-RAF disruption G12V,KRAS^G12V; RMC-7977 166.67 nM,0.38
same,Cellular RAS-RAF disruption G12V,KRAS^G12V; RMC-7977 500.00 nM,0.05
same,Cellular nano-BRET G12V,KRAS^G12V; calculated RMC-7977:CYPA complexes 1.95 nM,99.62
same,Cellular nano-BRET G12V,KRAS^G12V; calculated RMC-7977:CYPA complexes 34.93 nM,41.01 and 56.3646
same,Cellular nano-BRET G12V,KRAS^G12V; calculated RMC-7977:CYPA complexes 52.21 nM,66.75
same,Cellular nano-BRET G12V,KRAS^G12V; calculated RMC-7977:CYPA complexes 153.42 nM,36.46
same,Cellular nano-BRET G12V,KRAS^G12V; calculated RMC-7977:CYPA complexes 297.71 nM,8.26 and 13.953
same,Cellular nano-BRET G12V,KRAS^G12V; calculated RMC-7977:CYPA complexes 433.65 nM,13.89
same,Cellular nano-BRET G12V,KRAS^G12V; calculated RMC-7977:CYPA complexes 798.08 nM,4 and 4.5731
same,Cellular nano-BRET G12V,KRAS^G12V; calculated RMC-7977:CYPA complexes 1814.88 nM,1.99 and 1.6717
same,Cellular nano-BRET G12V,KRAS^G12V; calculated RMC-7977:CYPA complexes 2304.15 nM,0.38
same,Cellular nano-BRET G12V,KRAS^G12V; calculated RMC-7977:CYPA complexes 3597.12 nM,0.05
